Measured values from publication PMC10888717, “Identification of Novel Non-Nucleoside Inhibitors of Zika Virus NS5 Protein Targeting MTase Activity” (International Journal of Molecular Sciences, 2024).
“Also recorded” adds a separate entry of the source.

Tests used:
[1] = target: T1, ZIKV NS5 MTase (Zika virus, UniProt A0A024B7W1); assay: ZIKV NS5 MTase radioactive filter-binding assay (2′-O-MTase activity); type: biochemical; settings: at least two experiments, read-out: IC50 (half-maximal inhibitory enzymatic concentration)
T1 construct: KJ776791.2, aa 4–278; His6 (N); made in house; host or cells: Escherichia coli T7 Express Iq
T1 sequence (A0A024B7W1 2524-2798): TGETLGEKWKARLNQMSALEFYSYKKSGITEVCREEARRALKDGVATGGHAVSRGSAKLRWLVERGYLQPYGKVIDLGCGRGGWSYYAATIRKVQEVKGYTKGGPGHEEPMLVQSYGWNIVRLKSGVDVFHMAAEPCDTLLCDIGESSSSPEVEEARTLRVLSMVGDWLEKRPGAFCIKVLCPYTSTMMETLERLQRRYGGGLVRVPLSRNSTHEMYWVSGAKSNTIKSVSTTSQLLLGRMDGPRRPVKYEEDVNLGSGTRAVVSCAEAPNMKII
Procedure: Selected compounds were evaluated in enzymatic inhibition assays against both ZIKV and DENV 2′-O-MTase activity (For details, see Figure S3 in Supplementary Materials). The screening of compounds at a concentration of 50 µM highlighted a higher inhibitory activity against ZIKV MTase. We thus focused our efforts on ZIKV and determined the IC50 values against ZIKV MTase.
Expression and purification of ZIKV NS5 MTase: The coding sequence of the ZIKV NS5 MTase domain (strain H/PF/2013, GenBank accession no. KJ776791.2, aa 4–278) was synthesized by Genscript and cloned into a pQE30 vector (Qiagen, Hilden, Germany) with an N-terminal His6 tag. The protein was expressed and purified following the procedures described in Coutard et al..
Briefly, after expression in Escherichia coli T7 Express Iq (New England BioLabs) in Terrific Broth at 17 °C overnight, bacterial pellets were resuspended in lysis buffer (50 mM Tris-HCl [pH 8], 300 mM NaCl, 5% glycerol, 0.1% Triton, 10 μg/mL DNase I, 2 tablets of EDTA-free antiprotease cocktail [Roche] and 0.25 mg/mL lysozyme). Following cell lysis and clarification, the protein was purified by affinity on immobilized metal affinity chromatography (IMAC, His prep column [GE Healthcare]), followed by size exclusion chromatography (Superdex S75 HR 16/20 column [GE Healthcare]). The NS5-MTase was concentrated and stored at −20 °C after adding glycerol to a final concentration of 40%.
Filter-binding assay: The transfer of tritiated methyl from ^[3H]SAM onto RNA substrate was monitored by a filter-binding assay (FBA), performed according to the method described previously. FBA was carried out in a reaction mixture [40 mM Tris-HCl (pH 8.0), 1 mM DTT, 2 μM SAM, and 0.1 μM 3H-SAM (Perkin Elmer, Shelton, CT, USA)] in the presence of 0.7 μM synthetic ^7mGpppAC4 and ZIKV NS5 MTase (500 nM). The enzyme was first mixed with an increasing concentration of inhibitors, previously suspended in dimethyl sulfoxide (DMSO), before the addition of RNA substrate and SAM, and then incubated at 30 °C. The final DMSO concentration in reactions was 5%. Reaction mixtures were stopped after 30 min incubation by their 10-fold dilution in ice-cold water. Samples were transferred to diethylaminoethyl (DEAE) filtermat (Perkin Elmer, Shelton, CT, USA) using a Filtermat Harvester (Packard Instruments, Meriden, CT, USA). The RNA-retaining mats were washed twice with 10 mM ammonium formate pH 8.0, twice with water, and once with ethanol before drying. They were soaked with scintillation fluid (Perkin Elmer, Shelton, CT, USA), and 3H-methyl transfer to the RNA substrates was determined using a Wallac MicroBeta TriLux Liquid Scintillation Counter (Perkin Elmer, Shelton, CT, USA). For IC50 measurements, values were normalized and fitted with Prism (GraphPad software version 10.1.1) using the following equation: Y = 100/(1 + ((X/IC50) ^ Hillslope)).

[2] = tested on: ZIKV; assay: ZIKV inhibitory viral plaque reduction assay in Vero E6 cells; type: cell-based, Zika virus
[3] = Stability test in human plasma; type: in vitro ADME; settings: pH 7.4, 37 °C, up to 24 h, read-out: Plasma Stab. (T1/2, h ± SD) (converted)
Procedure: Finally, compounds were incubated in human plasma at 37 °C for 24 h. […] Taken together, stability studies confirmed that the series is suitable for further development.
For the ADME property determination, an Agilent 1260 Infinity HPLC-DAD interfaced with an Agilent MSD 6130 (Agilent Technologies, Palo Alto, CA, USA) was used. Chromatographic conditions were optimized using a Phenomenex Kinetex C18-100 Å column (150 × 4.6 mm) with 5 µm particle size and gradient elution with a binary solution (eluent A: H2O; eluent B: ACN; both eluents were acidified with formic acid 0.1% v/v) at room temperature. The LC analyses started with 5% of B (from t = 0 to t = 1 min), then B was increased to 95% (from t = 1 to t = 10 min) and then kept at 95% (from t = 10 to t = 19 min) and finally returned to initial conditions in 1.0 min. The flow rate was 0.6 mL/min and the injection volume was 10 µL.
A stock solution of the target compound in DMSO (2 mM) was incubated in a test tube with pooled human plasma (55.7 mg protein/mL) and HEPES buffer (25 mM, 140 mM NaCl pH 7.4) up to a final volume of 1.0 mL. The mixture was incubated at 37 °C, and at set time points (0.0, 0.5, 1, 4, 8, 24 h), samples of 50 µL were taken, mixed with 400 µL of ACN to stop the reaction of plasmatic esterases, and centrifuged at 5000 rpm for 15 min. The supernatant was removed and analyzed using the LC-UV/MS method previously described. The half-life (t½) was calculated according to the following equation: t½=ln 2/k where k represents the substrate elimination constant. For each compound, the determination was performed in three independent experiments.

[4] = Median lethal dose assessment in Tenebrio molitor coleoptera; type: in vivo; settings: in vivo, 200 mg/kg, single dose into hemocoel, 7 days observation
Procedure: (§1) The median lethal dose (LD50) was determined for compound 17 in a Tenebrio molitor coleoptera (TMC) toxicity model published previously. Due to ethical reasons, and according to the 3Rs principle, the insect model was preferred to the murine model to preliminarily evaluate the potential in vivo toxicity. […] The experiment was repeated until LD50 was determined and finally confirmed with ten TMCs. […] Even if complete pharmacokinetics should be performed to determine plasmatic levels, the administered concentration was higher than IC50. Considering that no antiviral efficacy models have been developed in insects, future studies with optimized compounds should be translated into suitable models (i.e., mice).
(§2) Tenebrio molitor coleoptera (TMC) and pupae for acute toxicity tests were fed at the University of Siena (Siena, Italy) on a diet previously published. Pupae and adult TMC were reared in semi-dark conditions at a temperature of 27 ± 1 °C and a relative humidity (RH) of 40–50%.
(§3) Median lethal dose assessment was carried out as previously published. Three days after the mutation, TMCs were randomly chosen. The appropriate amount of compound 17 was solubilized at the appropriate dose expressed in mg/kg of insect weight. […]

[5] = tested on: Tenebrio molitor coleoptera (TMC); assay: as above; type: in vivo; settings: acute administration
Procedure: as §1, §2, §3

CN1C(=O)c2ccc(NC(=O)c3cc4cccc(Cl)c4s3)cc2C1=O [Compound 17]
IC50 [1]: 11.4 µM
SI (Selectivity Index, ratio between CC50 and IC50) ([2]; VERO E6 cells): >200
IC50 ([2]; Zika virus, Vero C1008, read-out: IC50 ± SD (half-maximal inhibitory concentration, ZIKV plaque reduction)): 500 ± 100 nM
half-life [3]: > 1440 min
LD50 at 7 days [4]: 150 mg/kg
in vivo toxicity (in words) [5]: well tolerated; also recorded: less toxic than commonly used drugs such as paracetamol and carbamazepine
